Results as given in patent US20030008857A1, “Photodynamic therapy (PDT) in combination with factors that bind cell surface apoptosis-inducing receptors” (priority 1999, published 2003).

Key:
Assay type in all cases: cell-based, human
Details in all cases: TRAIL 20 ng/ml, 3 hours, Jurkat whole cell extracts
[1] = tested on: DEVDase (caspases 3 and 7); experiment: Protease assay of cell extracts with Ac-DEVD-AMC
Description: (§1) The human Jurkat T cell line containing a neomycin resistance gene was obtained from Dr. Charles Rudin (University of Chicago). Cells were maintained in RPMI 1640 medium containing 10% heat-inactivated fetal calf serum (FCS) with penicillin (100 U/mL), streptomycin (100 μg/mL), 20 mM HEPES, 2 mM L-glutamine and G418 (1 μg/ml) purchased from Gibco BRL (Burlington, Ontario) in a CO2 incubator at 37° C. To elicit apoptosis with PDT, Jurkat cells were incubated with different amounts of liposomally formulated benzoporphyrin derivative monoacid ring A (BPD-MA, verteporfin, QLT PhotoTherapeutics, Inc., Vancouver, Canada) for one hour at 37° C. under light-protected conditions. The culture medium used for experiments was identical to that used for the passage of the cells except that FCS was used at a concentration of 5%. Experiments were conducted either in 6-well culture plates at 5×10^6 cells in a volume of 4 ml per well or in 96-well microtiter plates at 1×10^5 cells per well at 0.2 ml per well. […]
(§2) These sequences are denoted by letter codes for each amino acid. […] The reaction mixture was incubated at 37° C. for 1 (DEVD.AMC) or 24 (VEID.AMC and IETH.AMC) h and fluorescence was measured using an excitation at 380 nm and an emission wavelength of 460 nm with a CytoFluor™ 2350 fluorescent measuring system (Perseptive Biosystems, Burlington, Ont).

VEIDase (caspase 6) = experiment: Protease assay of cell extracts with Ac-VEID-AMC
Description: as §1, §2

IETDase (caspase 8) = experiment: Protease assay of cell extracts with Ac-IETD-AMC
Description: as §1, §2

In the case of “TRAIL: recombinant, residues 114-281 of the soluble domain of human TRAIL (BIOMOL)”, the “increase in DEVDase-like activity versus control cells” value [1] is reported as “approximately four-fold”, the “increase in VEIDase-like activity versus control cells” value (VEIDase (caspase 6)) is reported as “two-fold” and the “increase in IETDase-like activity versus control cells” value (IETDase (caspase 8)) is reported as “two-fold”.
